Measurements: patent US11578056B2, “Solid forms comprising (S)-2-(2,6-dioxopiperidin-3-yl)-4-((2-fluoro-4-((3-morpholinoazetidin-1-yl)methyl)benzyl)amino)isoindoline-1,3-dione and salts thereof, and compositions comprising and methods of using the same” (Celgene Corporation, priority 2019, dated 2023)

Assays:
Assay in all cases: Hematological cell line viability/apoptosis flow cytometry assay
Type in all cases: cell-based
OCI-LY1 cell line = conditions: OCI-LY1 (DLBCL GCB); 120 h
Description: (§1) Cell Proliferation and Viability Assay Using Hematological Cell Lines: The following exemplary anti-proliferative assay uses exemplary hematological cell lines in the following. The in vitro growth inhibitory activity of Compound 1 described herein was evaluated using a 384-well flow cytometry assay.
(§2) The cell lines were plated in 384-well flat bottom plates and assessed with increasing concentrations of compound ranging from 0.00015 to 10 μM or dimethyl sulfoxide (DMSO) control. The final concentration of DMSO was 0.1% (v/v). Following the addition of Compound 1 or DMSO and incubation for 120 hours, cell number and cell death were analyzed by flow cytometry (Attune®, Thermo Fisher) using Annexin V and the live-cell impermeant DNA dye, DRAQ7. Phosphatidylserine translocates from the inner layer to the outer layer of the cell membrane early in apoptosis and Annexin V binds to the exposed phosphatidylserine found on the surface of an apoptotic cell. The vital dye DRAQ7 is excluded by intact live cells and only stains cells that have died as a result of apoptosis or necrosis.
(§3) Flow cytometry data analysis was then performed using the Flow Jo_v10 software to determine the number of viable cells (Annexin V and DRAQ7 double negative staining cells) and percentage of apoptotic cells (Annexin V positive cells) for each condition. The live cell count for every concentration was normalized to the DMSO control (considered as 100%) to calculate the percentage of viable cells remaining after treatment and graphed using GraphPad Prism 7.03. The IC50 (50% inhibitory concentration) and Emax (maximum efficacy achieved) values were then calculated by performing nonlinear regression curve fitting using log(inhibitor) vs. normalized response—variable slope analysis on GraphPad Prism 7.03. Area under the curve (AUC) was calculated by performing area under curve analysis on GraphPad Prism 7.03. Similarly, for apoptosis analysis, the percentage of apoptosis combining both “early” (Annexin V positive and DRAQ7 negative) and “late” apoptosis (Annexin V and DRAQ7 positive) cell gates relative to DMSO was graphed using GraphPad Prism 7.03. The AUC, EC50 (concentration of compound that produces half-maximal apoptosis response) and Ymax (maximal percentage of apoptosis achieved) values from apoptosis curves were calculated by performing area under curve analysis and nonlinear regression curve fitting using log(agonist) vs. normalized response—Variable slope analysis on GraphPad Prism 7.03.
(§4) Dose-response proliferation curves for the panel of hematological cell lines and non-linear curve-fit regression were used to determine IC50, AUC, and Emax for % viable cells (Emax for viability varies between 100 at low doses and 0 at high doses, which corresponds to inhibition of all viable cells), and dose-response apoptosis curves were used to determine the EC50, AUC, and Ymax for % apoptosis (Ymax for apoptosis varies from 0 at low doses and 100 at higher doses which corresponds to death of all cells). Tumor cells were exposed to serial dilutions (0.00015 to 10 μM) of Compound 1 or dimethyl sulfoxide (DMSO) control for 5 days. Viability and apoptosis for all cell lines was determined by Annexin V/7-aminoactinomycin D (7-AAD) flow cytometry.

HT cell line = conditions: HT (DLBCL GCB); 120 h
Description: as §1, §2, §3, §4

Karpas-299 cell line = conditions: Karpas-299 (TCL), 120 h
Description: as §1, §2, §3, §4

Farage cell line = conditions: Farage (DLBCL PMBL); 120 h
Description: as §1, §2, §3, §4

WSU-DLCL2 cell line = conditions: WSU-DLCL2 (DLBCL GCB); 120 h
Description: as §1, §2, §3, §4

SU-DHL-2 cell line = conditions: SU-DHL-2 (DLBCL ABC); 120 h
Description: as §1, §2, §3, §4

KARPAS-1106P cell line = conditions: KARPAS-1106P (DLBCL PMBL); 120 h
Description: as §1, §2, §3, §4

PGA1 cell line = conditions: PGA1 (CLL), 120 h
Description: as §1, §2, §3, §4

L-363 cell line = conditions: L-363 (MM, PCL), 120 h
Description: as §1, §2, §3, §4

ROS-50 cell line = conditions: ROS-50 (DLBCL), 120 h
Description: as §1, §2, §3, §4

NU-DHL-1 cell line = conditions: NU-DHL-1 (DLBCL GCB); 120 h
Description: as §1, §2, §3, §4

WA-OSEL cell line = conditions: WA-OSEL (CLL), 120 h
Description: as §1, §2, §3, §4

EHEB cell line = conditions: EHEB (CLL), 120 h
Description: as §1, §2, §3, §4

[1] = Homo sapiens, read-out: % Viable Cells IC50

Q: `O=C1CC[C@H](N2C(=O)c3cccc(NCc4ccc(CN5CC(N6CCOCC6)C5)cc4F)c3C2=O)C(=O)N1` [Compound 1, (S)-2-(2,6-dioxopiperidin-3-yl)-4-((2-fluoro-4-((3-morpholinoazetidin-1-yl)methyl)benzyl)amino)isoindoline-1,3-dione] was tested. Which “% Viable Cells AUC” value (OCI-LY1 cell line) did it give?
A: Its value is 22.77.

Q: And the “% Viable Cells Emax” value (OCI-LY1 cell line)?
A: The value was 1.037%.

Q: What about the “Apoptosis AUC” value (OCI-LY1 cell line) of the same compound?
A: Its value is 852.3.

Q: What about the “Apoptosis Ymax” value (OCI-LY1 cell line) of the same compound?
A: Its value is 90.09%.

Q: What about the “% Viable Cells AUC” value (HT cell line) of the same compound?
A: Its value is 396.7.

Q: What about the “% Viable Cells Emax” value (HT cell line) of the same compound?
A: Its value is 30.39%.

Q: And the “Apoptosis AUC” value (HT cell line)?
A: Its value is 225.3.

Q: What about the “Apoptosis Ymax” value (HT cell line) of the same compound?
A: The value was 25.16%.

Q: And the EC50 (Karpas-299 cell line; Homo sapiens)?
A: Its EC50 is 168 µM.

Q: And the IC50 (Karpas-299 cell line; [1])?
A: Its IC50 is 12 nM.

Q: And the “% Viable Cells AUC” value (Karpas-299 cell line)?
A: The value was 283.7.

Q: What about the “% Viable Cells Emax” value (Karpas-299 cell line) of the same compound?
A: The value was 8.43%.

Q: And the “Apoptosis AUC” value (Karpas-299 cell line)?
A: The value was 14.51.

Q: What about the “Apoptosis Ymax” value (Karpas-299 cell line) of the same compound?
A: The value was 8.0%.

Q: What about the “% Viable Cells AUC” value (Farage cell line) of the same compound?
A: Its value is 10.16.

Q: And the “% Viable Cells Emax” value (Farage cell line)?
A: Its value is 0.7936%.

Q: What about the “Apoptosis AUC” value (Farage cell line) of the same compound?
A: Its value is 728.7.

Q: What about the “Apoptosis Ymax” value (Farage cell line) of the same compound?
A: The value was 84.17%.

Q: What about the “% Viable Cells AUC” value (WSU-DLCL2 cell line) of the same compound?
A: Its value is 36.7.

Q: What about the “% Viable Cells Emax” value (WSU-DLCL2 cell line) of the same compound?
A: The value was 1.387%.

Q: And the “Apoptosis AUC” value (WSU-DLCL2 cell line)?
A: Its value is 858.9.

Q: And the “Apoptosis Ymax” value (WSU-DLCL2 cell line)?
A: The value was 92.1%.

Q: What about the “% Viable Cells AUC” value (SU-DHL-2 cell line) of the same compound?
A: The value was 5.586.

Q: What about the “% Viable Cells Emax” value (SU-DHL-2 cell line) of the same compound?
A: The value was 0.2145%.

Q: What about the “Apoptosis AUC” value (SU-DHL-2 cell line) of the same compound?
A: The value was 928.4.

Q: And the “Apoptosis Ymax” value (SU-DHL-2 cell line)?
A: Its value is 95.98%.

Q: What about the “% Viable Cells AUC” value (KARPAS-1106P cell line) of the same compound?
A: Its value is 22.22.

Q: What about the “% Viable Cells Emax” value (KARPAS-1106P cell line) of the same compound?
A: Its value is 0.1698%.

Q: What about the “Apoptosis AUC” value (KARPAS-1106P cell line) of the same compound?
A: Its value is 885.2.

Q: What about the “Apoptosis Ymax” value (KARPAS-1106P cell line) of the same compound?
A: Its value is 97.08%.

Q: What about the “% Viable Cells AUC” value (PGA1 cell line) of the same compound?
A: The value was 736.7.

Q: And the “% Viable Cells Emax” value (PGA1 cell line)?
A: The value was 69.21%.

Q: And the “Apoptosis AUC” value (PGA1 cell line)?
A: The value was 48.94.

Q: And the “Apoptosis Ymax” value (PGA1 cell line)?
A: Its value is 5.075%.

Q: What about the EC50 (PGA1 cell line) of the same compound?
A: Its EC50 is 122 nM.

Q: And the IC50 (PGA1 cell line; read-out: % Viable Cells IC50)?
A: Its IC50 is greater than 10 µM.

Q: What about the EC50 (L-363 cell line; Homo sapiens) of the same compound?
A: Its EC50 is 7.95 µM.

Q: And the IC50 (L-363 cell line; [1])?
A: The IC50 was 1 nM.

Q: What about the “% Viable Cells AUC” value (L-363 cell line) of the same compound?
A: Its value is 309.1.

Q: And the “% Viable Cells Emax” value (L-363 cell line)?
A: The value was 27.6%.

Q: And the “Apoptosis AUC” value (L-363 cell line)?
A: Its value is 2.954.

Q: What about the “Apoptosis Ymax” value (L-363 cell line) of the same compound?
A: The value was 2%.

Q: And the “% Viable Cells AUC” value (ROS-50 cell line)?
A: The value was 762.1.

Q: And the “% Viable Cells Emax” value (ROS-50 cell line)?
A: The value was 65.57%.

Q: What about the “Apoptosis AUC” value (ROS-50 cell line) of the same compound?
A: The value was 87.92.

Q: And the “Apoptosis Ymax” value (ROS-50 cell line)?
A: The value was 10.9%.

Q: And the EC50 (ROS-50 cell line)?
A: The EC50 was 335 nM.

Q: And the IC50 (ROS-50 cell line; read-out: % Viable Cells IC50)?
A: Its IC50 is greater than 10 µM.

Q: And the “% Viable Cells AUC” value (NU-DHL-1 cell line)?
A: Its value is 12.37.

Q: What about the “% Viable Cells Emax” value (NU-DHL-1 cell line) of the same compound?
A: The value was 0.4919%.

Q: What about the “Apoptosis AUC” value (NU-DHL-1 cell line) of the same compound?
A: The value was 981.8.

Q: What about the “Apoptosis Ymax” value (NU-DHL-1 cell line) of the same compound?
A: The value was 99.17%.

Q: What about the “% Viable Cells AUC” value (WA-OSEL cell line) of the same compound?
A: Its value is 616.1.

Q: What about the “% Viable Cells Emax” value (WA-OSEL cell line) of the same compound?
A: Its value is 54.42%.

Q: What about the “Apoptosis AUC” value (WA-OSEL cell line) of the same compound?
A: Its value is 69.39.

Q: What about the “Apoptosis Ymax” value (WA-OSEL cell line) of the same compound?
A: Its value is 7.38%.

Q: And the EC50 (WA-OSEL cell line)?
A: Its EC50 is 112 nM.

Q: What about the IC50 (WA-OSEL cell line; read-out: % Viable Cells IC50) of the same compound?
A: The IC50 was greater than 10 µM.

Q: And the “% Viable Cells AUC” value (EHEB cell line)?
A: Its value is 319.3.

Q: And the “% Viable Cells Emax” value (EHEB cell line)?
A: The value was 28.68%.

Q: What about the “Apoptosis AUC” value (EHEB cell line) of the same compound?
A: Its value is 65.03.

Q: And the “Apoptosis Ymax” value (EHEB cell line)?
A: The value was 8.42%.

Q: What about the EC50 (EHEB cell line) of the same compound?
A: The EC50 was 506 nM.

Q: What about the IC50 (EHEB cell line; read-out: % Viable Cells IC50) of the same compound?
A: The IC50 was 30.3 nM.
